Columns and labels:
ROS1 [1] = biological target: T1, ROS1 (Homo sapiens, UniProt P08922); test: ROS1 autophosphorylation inhibitory activity evaluation (ADP-Glo); type: biochemical; conditions: 200 nM inactive ROS1, ATP 1 mM, 25° C. 1.5 hours, ADP generated, four separate measurements
T1 construct: purchased Carna Biosciences 08-163
Outline: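 ROS1 autophosphorylation ran with 1 mM final ATP in 50 mM HEPES pH 7.5, 10 mM MgCl2, 0.01% Brij-58, 2.5 mM DTT for 1.5 h at 25° C. ADP generated was read by ADP-Glo luminescence. IC50 values were obtained by curve fitting.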

[2] = tested on: HCC78 cells having ROS1 fusion gene; test: HCC78 cell growth assay (CellTiter-Glo); type: cell-based; conditions: Homo sapiens, HCC78, 72 h, 72 hours culture, 2% FBS medium, luminescence, four separate measurements; read-out: growth inhibitory effect on HCC78 cells having ROS1 fusion gene IC50
NTRK1 = biological target: T2, NTRK1 (Homo sapiens, UniProt P04629); test: NTRK kinase enzyme inhibitory activity evaluation, NTRK1; type: biochemical; conditions: FL-Peptide 27 substrate, ATP Km=33 μM, three separate measurements
T2 construct: purchased Carna Biosciences 08-186
Protocol: (§1) NTRK1, NTRK2, and NTRK3 kinase solutions were each prepared. […]; Next, a substrate reaction solution was prepared.
(§2) Subsequently, a reaction stop solution was prepared. The composition is as follows: 100 mM HEPES (pH 7.4), 0.015% Brij-35, 40 mM EDTA, and 0.1% Coating Reagent 3 (Caliper Life Sciences #760050).
(§3) The NTRK1, NTRK2, and NTRK3 kinase solutions were each added at a concentration of 19 μL/well to a 96-well plate. Each compound for evaluation dissolved in DMSO to achieve each final concentration was added to the plate, mixed using a plate mixer, and then preincubated at room temperature for 20 minutes. […] Then, the reaction stop solution was added thereto at a concentration of 40 μL/well. Substrate phosphorylation intensity was measured using EZ Reader II (Caliper Life Sciences). IC50 values were calculated by curve fitting using Microsoft Excel 2010 on the basis of data obtained from three separate measurements.

NTRK3 = biological target: T3, NTRK3 (Homo sapiens, UniProt Q16288); test: NTRK kinase enzyme inhibitory activity evaluation, NTRK3; type: biochemical; conditions: FL-Peptide 27 substrate, ATP Km=32 μM, three separate measurements
T3 construct: purchased Carna Biosciences 08-197
Protocol: as §1, §2, §3

ROS1 [3] = biological target: T1, ROS1; test: ROS1 kinase inhibitory activity evaluation (mobility shift, EZ Reader II); type: biochemical; conditions: ROS1 25 pg/μL, FL-Peptide 22 substrate, three separate measurements
Protocol: Next, a substrate reaction solution was prepared. […] Then, the reaction stop solution was added thereto at a concentration of 40 μL/well. Substrate phosphorylation intensity was measured using EZ Reader II (Caliper Life Sciences).

NTRK2 = biological target: T4, NTRK2 (Homo sapiens, UniProt Q16620); test: NTRK kinase enzyme inhibitory activity evaluation, NTRK2; type: biochemical; conditions: FL-Peptide 27 substrate, ATP Km=63 μM, three separate measurements
T4 construct: purchased Carna Biosciences 08-187
Protocol: as §1, §2, §3

T2 sequence (P04629 33-796): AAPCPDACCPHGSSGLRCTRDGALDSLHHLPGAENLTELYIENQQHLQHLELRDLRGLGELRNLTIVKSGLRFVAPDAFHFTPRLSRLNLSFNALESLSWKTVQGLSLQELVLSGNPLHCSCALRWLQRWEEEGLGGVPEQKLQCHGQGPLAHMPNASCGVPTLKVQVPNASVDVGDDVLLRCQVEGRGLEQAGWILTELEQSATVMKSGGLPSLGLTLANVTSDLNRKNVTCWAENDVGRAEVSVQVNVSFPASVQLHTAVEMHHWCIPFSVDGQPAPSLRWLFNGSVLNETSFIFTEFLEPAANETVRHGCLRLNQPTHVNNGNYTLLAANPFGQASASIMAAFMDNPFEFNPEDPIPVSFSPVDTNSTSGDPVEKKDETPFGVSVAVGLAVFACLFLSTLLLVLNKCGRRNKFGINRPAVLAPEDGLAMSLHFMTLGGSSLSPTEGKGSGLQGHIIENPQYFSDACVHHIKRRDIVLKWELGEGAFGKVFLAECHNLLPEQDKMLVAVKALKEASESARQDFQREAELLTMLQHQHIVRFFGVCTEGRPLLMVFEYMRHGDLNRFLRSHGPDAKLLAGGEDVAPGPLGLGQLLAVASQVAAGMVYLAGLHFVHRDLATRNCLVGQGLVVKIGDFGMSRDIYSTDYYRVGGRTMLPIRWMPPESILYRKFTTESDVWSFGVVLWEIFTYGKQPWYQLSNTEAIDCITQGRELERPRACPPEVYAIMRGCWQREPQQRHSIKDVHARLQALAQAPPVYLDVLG
T1 sequence (P08922 28-2347): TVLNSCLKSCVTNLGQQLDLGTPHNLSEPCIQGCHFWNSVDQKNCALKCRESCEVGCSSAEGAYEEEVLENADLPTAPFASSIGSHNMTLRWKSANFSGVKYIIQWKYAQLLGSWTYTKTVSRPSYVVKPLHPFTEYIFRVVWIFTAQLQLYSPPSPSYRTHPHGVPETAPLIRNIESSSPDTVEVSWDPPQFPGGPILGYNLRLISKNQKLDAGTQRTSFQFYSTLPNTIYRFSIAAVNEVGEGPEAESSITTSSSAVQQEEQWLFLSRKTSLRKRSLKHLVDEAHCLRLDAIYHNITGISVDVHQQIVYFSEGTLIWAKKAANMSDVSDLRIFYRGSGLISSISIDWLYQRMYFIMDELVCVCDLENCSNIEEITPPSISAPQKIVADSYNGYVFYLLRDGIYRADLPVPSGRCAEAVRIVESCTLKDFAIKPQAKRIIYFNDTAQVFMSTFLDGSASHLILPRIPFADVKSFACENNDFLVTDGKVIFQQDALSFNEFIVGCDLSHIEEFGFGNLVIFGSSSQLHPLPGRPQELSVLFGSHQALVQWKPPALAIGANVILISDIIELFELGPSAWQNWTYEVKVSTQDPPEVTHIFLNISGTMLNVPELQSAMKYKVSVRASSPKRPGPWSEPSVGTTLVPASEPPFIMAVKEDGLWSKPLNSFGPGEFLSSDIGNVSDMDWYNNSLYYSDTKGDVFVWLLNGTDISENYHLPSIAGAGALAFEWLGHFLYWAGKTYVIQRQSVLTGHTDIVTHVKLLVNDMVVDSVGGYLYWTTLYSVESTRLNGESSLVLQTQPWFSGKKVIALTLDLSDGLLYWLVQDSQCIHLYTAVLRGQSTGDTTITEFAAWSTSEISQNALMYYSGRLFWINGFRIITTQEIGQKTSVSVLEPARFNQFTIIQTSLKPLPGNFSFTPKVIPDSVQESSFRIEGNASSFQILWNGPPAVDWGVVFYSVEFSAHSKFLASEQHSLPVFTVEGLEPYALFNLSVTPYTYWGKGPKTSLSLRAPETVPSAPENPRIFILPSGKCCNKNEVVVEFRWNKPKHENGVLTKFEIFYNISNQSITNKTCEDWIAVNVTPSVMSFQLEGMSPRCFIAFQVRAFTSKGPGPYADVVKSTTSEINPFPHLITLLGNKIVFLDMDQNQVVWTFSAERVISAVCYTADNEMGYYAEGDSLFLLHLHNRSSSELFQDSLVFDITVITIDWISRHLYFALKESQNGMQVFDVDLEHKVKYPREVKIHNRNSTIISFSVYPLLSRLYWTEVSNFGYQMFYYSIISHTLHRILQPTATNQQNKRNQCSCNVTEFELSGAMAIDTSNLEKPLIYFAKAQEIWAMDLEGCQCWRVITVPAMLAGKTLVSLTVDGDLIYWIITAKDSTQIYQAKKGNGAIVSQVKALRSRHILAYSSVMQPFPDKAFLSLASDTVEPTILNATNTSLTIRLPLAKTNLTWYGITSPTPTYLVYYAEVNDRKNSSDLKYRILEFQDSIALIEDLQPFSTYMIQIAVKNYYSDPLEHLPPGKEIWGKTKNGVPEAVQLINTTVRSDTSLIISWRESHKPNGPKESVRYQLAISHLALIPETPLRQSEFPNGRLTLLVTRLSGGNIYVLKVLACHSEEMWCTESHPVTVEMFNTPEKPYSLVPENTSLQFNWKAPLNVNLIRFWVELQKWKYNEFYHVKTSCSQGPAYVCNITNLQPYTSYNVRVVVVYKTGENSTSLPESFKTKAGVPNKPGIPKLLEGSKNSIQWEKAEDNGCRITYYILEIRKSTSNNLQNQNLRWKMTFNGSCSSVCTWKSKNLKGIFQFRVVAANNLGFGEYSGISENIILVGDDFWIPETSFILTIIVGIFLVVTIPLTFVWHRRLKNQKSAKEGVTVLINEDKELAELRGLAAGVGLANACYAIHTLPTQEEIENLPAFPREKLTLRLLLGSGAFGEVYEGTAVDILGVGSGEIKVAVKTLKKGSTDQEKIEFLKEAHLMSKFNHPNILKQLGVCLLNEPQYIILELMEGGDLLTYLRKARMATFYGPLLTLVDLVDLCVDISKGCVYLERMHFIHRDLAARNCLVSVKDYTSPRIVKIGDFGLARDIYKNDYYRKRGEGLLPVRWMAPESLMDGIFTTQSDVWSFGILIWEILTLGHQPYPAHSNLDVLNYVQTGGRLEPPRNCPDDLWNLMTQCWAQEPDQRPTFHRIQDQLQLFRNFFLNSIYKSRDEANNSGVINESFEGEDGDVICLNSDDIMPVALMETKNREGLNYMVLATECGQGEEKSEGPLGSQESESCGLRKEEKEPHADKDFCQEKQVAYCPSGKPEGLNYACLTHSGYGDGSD
T3 sequence (Q16288 32-839): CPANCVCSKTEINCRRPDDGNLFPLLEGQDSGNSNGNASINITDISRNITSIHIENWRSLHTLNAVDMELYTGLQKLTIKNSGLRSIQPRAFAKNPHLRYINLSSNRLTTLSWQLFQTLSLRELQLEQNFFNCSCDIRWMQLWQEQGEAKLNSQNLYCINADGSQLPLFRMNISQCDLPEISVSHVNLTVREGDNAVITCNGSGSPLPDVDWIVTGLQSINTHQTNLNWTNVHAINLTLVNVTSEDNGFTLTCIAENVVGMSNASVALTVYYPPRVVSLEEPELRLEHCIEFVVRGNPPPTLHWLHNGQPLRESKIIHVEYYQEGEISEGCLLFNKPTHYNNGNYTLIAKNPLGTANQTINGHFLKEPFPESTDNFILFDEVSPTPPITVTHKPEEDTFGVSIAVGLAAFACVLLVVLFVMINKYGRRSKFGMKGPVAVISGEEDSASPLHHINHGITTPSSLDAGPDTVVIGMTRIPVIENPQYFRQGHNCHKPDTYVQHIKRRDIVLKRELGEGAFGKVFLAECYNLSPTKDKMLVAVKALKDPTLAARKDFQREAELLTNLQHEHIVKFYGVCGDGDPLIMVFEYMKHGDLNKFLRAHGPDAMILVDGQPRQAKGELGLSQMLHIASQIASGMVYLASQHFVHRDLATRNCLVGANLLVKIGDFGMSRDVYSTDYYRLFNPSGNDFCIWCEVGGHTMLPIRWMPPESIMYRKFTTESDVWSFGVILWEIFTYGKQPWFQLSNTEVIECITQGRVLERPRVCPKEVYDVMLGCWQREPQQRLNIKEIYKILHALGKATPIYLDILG
T4 sequence (Q16620 32-822): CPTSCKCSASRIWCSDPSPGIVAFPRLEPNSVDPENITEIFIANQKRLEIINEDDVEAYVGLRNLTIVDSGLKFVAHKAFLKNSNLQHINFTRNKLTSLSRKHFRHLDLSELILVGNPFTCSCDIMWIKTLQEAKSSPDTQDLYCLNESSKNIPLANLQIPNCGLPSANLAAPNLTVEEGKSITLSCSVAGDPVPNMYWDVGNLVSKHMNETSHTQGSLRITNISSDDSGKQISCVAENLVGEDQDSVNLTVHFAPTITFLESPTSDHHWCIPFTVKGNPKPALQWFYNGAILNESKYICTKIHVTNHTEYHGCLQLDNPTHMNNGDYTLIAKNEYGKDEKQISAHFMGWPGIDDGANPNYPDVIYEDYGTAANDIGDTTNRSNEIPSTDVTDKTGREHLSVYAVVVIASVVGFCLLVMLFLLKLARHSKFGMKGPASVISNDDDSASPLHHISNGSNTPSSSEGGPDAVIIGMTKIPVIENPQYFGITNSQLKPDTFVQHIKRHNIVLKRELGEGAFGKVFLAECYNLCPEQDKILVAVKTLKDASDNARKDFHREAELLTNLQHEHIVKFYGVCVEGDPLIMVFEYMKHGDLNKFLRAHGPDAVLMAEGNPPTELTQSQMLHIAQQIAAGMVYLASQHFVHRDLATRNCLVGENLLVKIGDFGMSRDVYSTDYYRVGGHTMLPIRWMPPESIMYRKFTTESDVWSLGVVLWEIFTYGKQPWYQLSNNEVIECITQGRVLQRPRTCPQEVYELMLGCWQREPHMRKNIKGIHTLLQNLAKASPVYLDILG

Row | Structure (SMILES) | IC50 (ROS1 [1]) | IC50 [2] | IC50 (NTRK1) | IC50 (NTRK3) | IC50 (ROS1 [3]) | IC50 (NTRK2)
1 | C[C@@H](Oc1ccc2ncc(-c3ccc(N4C[C@@H](N)CC4=O)nc3)n2n1)c1cccc(F)c1 [Example 127, (4S)-4-Amino-1-[5-[6-[(1R)-1-(3-fluorophenyl)ethoxy]imidazo[1,2-b]pyridazin-3-yl]-2-pyridyl]pyrrolidin-2-one] | < 20 nM | 20 to 100 nM | 10 to 15 nM | 5 to 10 nM | < 1 nM | 20 to 25 nM
2 | COc1cc(N2C[C@@H](N)CC2=O)ccc1-c1cnc2ccc(N(C)Cc3cccc(F)c3)nn12 [Example 85, (4S)-4-Amino-1-[4-[6-[(3-fluorophenyl)methyl-methylamino]imidazo[1,2-b]pyridazin-3-yl]-3-methoxyphenyl]pyrrolidin-2-one] | < 20 nM | 20 to 100 nM | < 5 nM | < 5 nM | 1 to 10 nM | < 10 nM
3 | CN(Cc1cccc(F)c1)c1ccc2ncc(-c3ccc(N4C[C@@H](N)CC4=O)cc3)n2n1 [Example 81, (4S)-4-Amino-1-[4-[6-[(3-fluorophenyl)methyl-methylamino]imidazo[1,2-b]pyridazin-3-yl]phenyl]pyrrolidin-2-one] | < 20 nM | < 20 nM | < 5 nM | < 5 nM | < 1 nM | < 10 nM

The remaining lines, values ahead:

Row | IC50 (ROS1 [1]) | IC50 [2] | IC50 (NTRK1) | IC50 (NTRK3) | IC50 (ROS1 [3]) | IC50 (NTRK2) | Structure (SMILES)
4 | < 20 nM | < 20 nM | < 5 nM | < 5 nM | < 1 nM | < 10 nM | C[C@@H](Nc1ccc2ncc(-c3ccc(OC[C@@H]4CCN4)cc3)n2n1)c1cccc(F)c1 [Example 30, 3-[4-[[(2S)-Azetidin-2-yl]methoxy]phenyl]-N-[(1R)-1-(3-fluorophenyl)ethyl]imidazo[1,2-b]pyridazin-6-amine]
5 | < 20 nM | < 20 nM | < 5 nM | < 5 nM | < 1 nM | < 10 nM | CNCCOc1ccc(-c2cnc3ccc(N[C@H](C)c4cccc(F)c4)nn23)cc1 [Example 29, N-[(1R)-1-(3-Fluorophenyl)ethyl]-3-[4-[2-(methylamino)ethoxy]phenyl]imidazo[1,2-b]pyridazin-6-amine]
6 | < 20 nM | 20 to 100 nM | < 5 nM | < 5 nM | < 1 nM | < 10 nM | C[C@@H](Nc1ccc2ncc(-c3ccc(OC[C@@H]4CCCN4)cc3)n2n1)c1cccc(F)c1 [Example 24, N-[(1R)-1-(3-Fluorophenyl)ethyl]-3-[4-[[(2S)-pyrrolidin-2-yl]methoxy]phenyl]imidazo[1,2-b]pyridazin-6-amine]
7 | < 20 nM | < 20 nM | < 5 nM | < 5 nM | < 1 nM | < 10 nM | C[C@@H](Nc1ccc2ncc(-c3ccc(N4C[C@@H](N)CC4=O)cc3)n2n1)c1cccc(F)c1 [Example 90, (4S)-4-Amino-1-[4-[6-[[(1R)-1-(3-fluorophenyl)ethyl]amino]imidazo[1,2-b]pyridazin-3-yl]phenyl]pyrrolidin-2-one]

— US9751887B2, “Imidazo[1,2-b]pyridazine derivatives as kinase inhibitors” (Daiichi Sankyo Company, Limited, priority 2012, dated 2017)
